From ChEMBL document CHEMBL1145373, “Syntheses of potent, selective, and orally bioavailable indazole-pyridine series of protein kinase B/Akt inhibitors with reduced hypotension” (J Med Chem, 2007) come the findings set out here.

Each structure is given as a SMILES string.

Series [1] can be described thus: Cytotoxicity against human MIA PaCa cells by MTT assay. Type of series: functional, cell-based. (Tetrazolium assays rely on reduction of a dye to a coloured formazan, in cell work by metabolically active cells.)
Series [2] has as its target cAMP-dependent protein kinase (PKA) (Homo sapiens, UniProt P22694+P17612+P22612). The series can be described thus: Inhibition of PKA. Type of series: protein assay.
Series [3] is described as follows: AUC in mouse at 10 mg/kg, po. Also on record: dose 10 mg/kg, route oral. Particulars: plasma. The format is ADME, organism-based.
Series [4] can be described thus: Half life in mouse at 10 mg/kg, po. The format is ADME, organism-based. Also on record: dose 10 mg/kg, route oral. Particulars: in vivo.
A short description of series [5]: Toxicity assessed as prolongation of action potential duration in dog purkinje fibres at 20 uM. Type of series: tissue-based, Canis lupus familiaris, Purkinje fiber.
Series [6] in a line: Oral bioavailability in mouse at 10 mg/kg, po. Type of series: ADME, organism-based. The note with it: in vivo.
A short description of series [7]: Hypotensive effect in dog femoral artery by femoral artery relaxation assay. The format is functional, tissue-based, Canis lupus familiaris.
Series [8] in a line: Oral bioavailability in dog at 2.5 mg/kg, po. Particulars: in vivo. Type of series: ADME, organism-based, Canis lupus familiaris.
Series [9] is described as follows: Oral bioavailability in orally dosed rat. Type of series: ADME, organism-based. The note with it: in vivo.
For series [10], the target named is Voltage-gated inwardly rectifying potassium channel KCNH2 (Homo sapiens, UniProt Q12809). The series can be described thus: Inhibition of hERG by patch clamp assay. The format is toxicity.
Sequence of Voltage-gated inwardly rectifying potassium channel KCNH2 (Q12809 whole entry): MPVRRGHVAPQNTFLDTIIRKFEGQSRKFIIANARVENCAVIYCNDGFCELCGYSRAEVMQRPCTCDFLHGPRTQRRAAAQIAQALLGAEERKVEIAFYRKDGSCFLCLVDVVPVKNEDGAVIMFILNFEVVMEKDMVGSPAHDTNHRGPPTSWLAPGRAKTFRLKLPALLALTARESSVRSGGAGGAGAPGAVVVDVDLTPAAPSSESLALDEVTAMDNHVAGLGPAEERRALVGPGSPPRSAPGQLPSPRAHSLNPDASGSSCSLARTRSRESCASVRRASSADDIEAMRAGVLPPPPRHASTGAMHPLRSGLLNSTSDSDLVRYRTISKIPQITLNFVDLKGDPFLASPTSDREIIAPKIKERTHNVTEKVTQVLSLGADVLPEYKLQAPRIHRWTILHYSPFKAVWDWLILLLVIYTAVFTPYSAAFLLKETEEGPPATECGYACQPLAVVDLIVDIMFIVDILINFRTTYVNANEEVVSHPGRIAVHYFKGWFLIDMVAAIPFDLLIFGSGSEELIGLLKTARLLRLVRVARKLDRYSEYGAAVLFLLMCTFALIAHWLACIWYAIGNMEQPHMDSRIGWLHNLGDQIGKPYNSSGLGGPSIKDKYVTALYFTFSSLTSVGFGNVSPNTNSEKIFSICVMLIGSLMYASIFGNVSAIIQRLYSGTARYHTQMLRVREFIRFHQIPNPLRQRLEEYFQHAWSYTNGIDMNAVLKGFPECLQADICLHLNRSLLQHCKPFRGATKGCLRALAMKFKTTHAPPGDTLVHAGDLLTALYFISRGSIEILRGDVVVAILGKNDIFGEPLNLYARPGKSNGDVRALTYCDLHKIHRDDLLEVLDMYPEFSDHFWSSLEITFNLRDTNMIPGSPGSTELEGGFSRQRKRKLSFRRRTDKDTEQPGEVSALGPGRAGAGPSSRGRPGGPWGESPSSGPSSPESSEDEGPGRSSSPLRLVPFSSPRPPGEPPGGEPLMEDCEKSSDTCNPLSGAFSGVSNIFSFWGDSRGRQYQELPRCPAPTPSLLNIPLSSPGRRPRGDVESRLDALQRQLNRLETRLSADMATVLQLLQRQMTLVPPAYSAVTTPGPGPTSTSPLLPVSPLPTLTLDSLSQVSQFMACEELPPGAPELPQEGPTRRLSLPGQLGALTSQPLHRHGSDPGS
The next series relates to Mus musculus. The series can be described thus: Toxicity assessed as decrease in MAP in mouse at 150 mg/kg, po. Type of series: organism-based. Particulars: in vivo. Also on record: dose 150 mg/kg, route oral.
Series [11] is described as follows: Half life in mouse at 3 mg/kg, iv. The note with it: in vivo. Also on record: dose 3 mg/kg, route intravenous. The format is ADME, organism-based.
For series [12], the system named is Canis familiaris. The series can be described thus: Cardiovascular toxicity assessed as induction of acute hypotension in dog at 25 mg/kg, iv by femoral artery relaxation assay. Particulars: in vivo. Also on record: dose 25 mg/kg, route intravenous. The format is organism-based, Canis lupus familiaris.
Series [13] relates to Canis familiaris. The series is described as follows: Toxicity assessed as decrease in MAP in dog infused at 0.48 mg/kg/min. Type of series: organism-based, Canis lupus familiaris. Particulars: in vivo.

What is called EC50 is the concentration needed to bring the measured effect to its halfway point. Low values mean a more potent agent, high ones a less potent agent. With `Cc1n[nH]c2ccc(-c3cncc(OC[C@@H](N)Cc4ccccc4OC(F)(F)F)c3)cc12`, in series [1], the response was half-maximal at 0.23 µM (EC50). This counts as sub-micromolar.

Consider `COc1ccc(F)cc1C[C@H](N)COc1cncc(-c2ccc3[nH]nc(C)c3c2)c1`, for which, in series [1], the response was half-maximal at 0.23 µM (EC50).

Broadly, the IC50 is the point on the concentration scale where inhibition reaches its midpoint. A higher IC50 goes with weaker potency. `Cc1n[nH]c2ccc(-c3cncc(OC[C@@H](N)Cc4cccc(C(F)(F)F)c4)c3)cc12` showed a half-inhibitory concentration (IC50) in series [2] of 0.005 µM. In series [1], the EC50 stood at 0.6 µM.

`Cc1n[nH]c2ccc(-c3cncc(OC[C@@H](N)Cc4ccc(F)c(C(F)(F)F)c4)c3)cc12`: a half-maximal effect in [1] (EC50) was put at 0.6 µM.

With `Cc1n[nH]c2ccc(-c3cncc(OC[C@@H](N)Cc4ccc5c(c4)OC(F)(F)C(F)(F)O5)c3)cc12`, the EC50 in series [1] came to 3.7 µM.

On to `Cc1n[nH]c2ccc(-c3cncc(OC[C@@H](N)Cc4cccc(OCC5CCNCC5)c4)c3)cc12`, for which the EC50 in series [1] came to 0.25 µM.

On to `Cc1n[nH]c2ccc(-c3cncc(OC[C@@H](N)Cc4cccc(OCC5CCCCC5)c4)c3)cc12`, for which, in [1], the EC50 was determined as 16.5 µM.

Molecule `Cc1n[nH]c2ccc(-c3cncc(OC[C@@H](N)Cc4cccc(OCC5CCN(C)CC5)c4)c3)cc12` yielded an EC50 in series [1] of 1.25 µM.

`Cc1n[nH]c2ccc(-c3cncc(OC[C@@H](N)Cc4cccc(OCCN)c4)c3)cc12` came in with an EC50 in series [1] of 4.8 µM. This EC50 is about 3.8-fold higher than that of the molecule before.

In the case of `N[C@H](COc1cncc(-c2cc3cn[nH]c3cn2)c1)Cc1cccc(C(F)(F)F)c1`, the IC50 in [2] was determined as 0.078 µM. The same molecule yielded an EC50 in [1] of 2.39 µM.

One may read the AUC as the area under the concentration-time curve, a measure of exposure. Read a low AUC as low exposure. The term half-life denotes how long it takes for the measured level to halve. By bioavailability is commonly meant dose-corrected exposure relative to a reference, in per cent. A lower bioavailability goes with poor availability. For the molecule `Cc1n[nH]c2cnc(-c3cncc(OC[C@@H](N)Cc4cccc(C(F)(F)F)c4)c3)cc12`, the IC50 in series [2] was 0.013 µM. The area under the curve (AUC) in [3] was 1.7 µM·h. The molecule also yielded an EC50 in [1] of 0.37 µM. In series [4], this molecule had a half-life of 1.84 h. Moreover, the Activity in series [5] is reported as -4%. In series [6], the bioavailability worked out at 25%.

In turn, `Cc1cc(C[C@H](N)COc2cncc(-c3ccc4[nH]nc(C)c4c3)c2)ccc1Br` showed an EC50 in series [1] of 1.26 µM.

In series [1], `Cc1ccc(C[C@H](N)COc2cncc(-c3ccc4[nH]nc(C)c4c3)c2)cc1F` showed an EC50 of 0.33 µM.

Regarding `Cc1cc(C)c(C[C@H](N)COc2cncc(-c3ccc4[nH]nc(C)c4c3)c2)c(C)c1`, it took 1.61 µM to reach a half-maximal effect in series [1] (EC50).

On to `Cc1n[nH]c2ccc(-c3cncc(OC[C@@H](N)Cc4cccc(OC(F)(F)F)c4)c3)cc12`, for which, in series [1], the EC50 was determined as 0.83 µM. Against the preceding molecule, the EC50 is about 1.9-fold lower.

As to `Cc1n[nH]c2ccc(-c3cncc(OC[C@@H](N)Cc4cc(C(F)(F)F)ccc4F)c3)cc12`, the midpoint of the response in series [1], the EC50, lay at 0.97 µM.

For `Cc1n[nH]c2ccc(-c3cncc(OC[C@@H](N)Cc4ccc(C(F)(F)F)cc4F)c3)cc12`, in series [1], the EC50 was determined as 2.9 µM.

In the case of `Cc1n[nH]c2ccc(-c3cncc(OC[C@@H](N)Cc4ccc(OC(F)(F)F)cc4)c3)cc12`, the EC50 in [1] is 1.7 µM.

Turning to `Cc1n[nH]c2ccc(-c3cncc(OC[C@@H](N)Cc4ccc5c(c4)OCO5)c3)cc12`, the EC50 in [1] came out at 0.58 µM.

Turning to `Cc1n[nH]c2ccc(-c3cncc(OC[C@@H](N)Cc4cccc5c4OC(F)(F)O5)c3)cc12`, a half-maximal effect in [1] (EC50) was put at 0.68 µM.

On to `Cc1n[nH]c2ccc(-c3cncc(OC[C@@H](N)Cc4ccc(Br)cc4F)c3)cc12`, for which it took 0.9 µM to reach a half-maximal effect in series [1] (EC50).

In series [1], `Cc1n[nH]c2ccc(-c3cncc(OC[C@@H](N)Cc4ccc(Br)c(F)c4)c3)cc12` had an EC50 of 0.43 µM.

`Cc1ccc(F)cc1C[C@H](N)COc1cncc(-c2ccc3[nH]nc(C)c3c2)c1`: in series [1], the EC50 is 0.24 µM.

In turn, `Cc1n[nH]c2ccc(-c3cncc(OC[C@@H](N)Cc4cccc(F)c4)c3)cc12` gave a concentration giving a half-maximal response (EC50) in series [1] of 0.26 µM.

Consider `Cc1n[nH]c2ccc(-c3cncc(OC[C@@H](N)Cc4ccc(F)cc4F)c3)cc12`, for which the EC50 in series [1] amounted to 0.93 µM. This EC50 lies about 3.6-fold higher than the previous one.

`Cc1n[nH]c2ccc(-c3cncc(OC[C@@H](N)Cc4cccc(I)c4)c3)cc12`: in series [1], the response was half-maximal at 0.81 µM (EC50).

Turning to `Cc1n[nH]c2ccc(-c3cncc(OC[C@@H](N)Cc4ccc(F)c(F)c4F)c3)cc12`, the response in [1] was half-maximal at 0.29 µM (EC50).

As for `Cc1n[nH]c2ccc(-c3cncc(OC[C@@H](N)Cc4cccc(Cl)c4)c3)cc12`, the EC50 in series [1] is 0.45 µM. This EC50 is about 1.6-fold higher than that of the molecule before.

Regarding `Cc1n[nH]c2ccc(-c3cncc(OC[C@@H](N)Cc4ccc(Cl)cc4)c3)cc12`, in series [1], the EC50 was 0.44 µM.

Regarding `Cc1n[nH]c2ccc(-c3cncc(OC[C@@H](N)Cc4ccccc4Br)c3)cc12`, in [1], it took 0.34 µM to reach a half-maximal effect (EC50).

Turning to `Cc1n[nH]c2ccc(-c3cncc(OC[C@@H](N)Cc4ccc(Br)cc4)c3)cc12`, the EC50 in [1] amounted to 0.7 µM.

For the molecule `Cc1n[nH]c2ccc(-c3cncc(OC[C@@H](N)Cc4ccc(Cl)c(F)c4)c3)cc12`, the AUC in series [3] was found to be 2.3 µM·h. The values for the EC50 in series [1] and in series [7] were 0.27 µM and 6 µM, respectively. This molecule also had a half-life in series [4] of 2.1 h. Also, the Activity in series [5] was -1.3%. In addition, the results for the bioavailability in series [6], in series [8] and in series [9] were 84%, 40% and 38%, respectively.

Molecule `Cc1n[nH]c2ccc(-c3cncc(OC[C@@H](N)Cc4cccc(Cl)c4Cl)c3)cc12` came in with an EC50 in series [1] of 0.21 µM.

`Cc1n[nH]c2ccc(-c3cncc(OC[C@@H](N)Cc4ccc(Cl)c(Cl)c4)c3)cc12` came in with an EC50 in series [1] of 0.49 µM.

Regarding `Cc1n[nH]c2ccc(-c3cncc(OC[C@@H](N)Cc4cc(F)cc(C(F)(F)F)c4)c3)cc12`, a half-maximal effect in series [1] (EC50) was put at 1.38 µM.

The molecule `Cc1n[nH]c2ccc(-c3cncc(OC[C@@H](N)Cc4ccc(C(F)(F)F)c(F)c4)c3)cc12` displayed an EC50 in series [1] of 1.43 µM.

In turn, `Cc1n[nH]c2ccc(-c3cncc(OC[C@@H](N)Cc4ccc(F)c(Cl)c4)c3)cc12` registered an EC50 in series [1] of 0.67 µM.

In series [1], `Cc1n[nH]c2ccc(-c3cncc(OC[C@@H](N)Cc4cc(Cl)cc(Cl)c4)c3)cc12` came in with an EC50 of 1 µM.

In turn, `Cc1cc(F)ccc1C[C@H](N)COc1cncc(-c2ccc3[nH]nc(C)c3c2)c1` registered a half-maximal effective concentration (EC50) in series [1] of 0.34 µM.

For `Cc1n[nH]c2ccc(-c3cncc(OC[C@@H](N)Cc4ccccc4)c3)cc12`, in series [3], the exposure (AUC) stood at 2 µM·h. Also, the EC50 in series [1] came out at 0.64 µM. Besides, the half-life in series [4] and in series [11] was 1 h throughout. The Activity entry in series [5] was “Toxic”; with Mus musculus, 31 mmHg. In series [10], the IC50 is 13.4 µM. In [6], this molecule came in with a bioavailability of 70%.

With `Cc1n[nH]c2ccc(-c3cncc(OC[C@@H](N)Cc4cccc(OCCC5CCNCC5)c4)c3)cc12`, a half-maximal effect in series [1] (EC50) was put at 2.74 µM.

With `N[C@H](COc1cncc(-c2ccc3c(c2)/C(=C/c2ccc[nH]2)C(=O)N3)c1)Cc1ccccc1`, it took 354 µM to reach a half-maximal effect in series [7] (EC50). Further, the bioavailability in series [6] stood at 0%. Besides, the Activity in the series with Canis familiaris [12] is on record as 30 mmHg. This molecule also had a half-life in [11] of 0.5 h.

Consider `N[C@H](COc1cncc(-c2cc3c(Cl)n[nH]c3cn2)c1)Cc1cccc(C(F)(F)F)c1`, for which, in [2], the half-inhibitory concentration (IC50) was determined as 0.015 µM. This molecule also had an EC50 in series [1] of 1.38 µM.

For `Cc1n[nH]c2ccc(-c3cncc(OC[C@@H](N)Cc4ccccc4Cl)c3)cc12`, the EC50 in [1] is 0.38 µM.

`Cc1n[nH]c2ccc(-c3cncc(OC[C@@H](N)Cc4cccc(Br)c4)c3)cc12` yielded an EC50 in series [1] of 0.37 µM.

In series [1], `Cc1n[nH]c2ccc(-c3cncc(OC[C@@H](N)Cc4cccc(OCCN5CCOCC5)c4)c3)cc12` yielded a half-maximal effective concentration (EC50) of 13 µM.

In the case of `Cc1n[nH]c2cnc(-c3cncc(OC[C@@H](N)Cc4cccc(F)c4F)c3)cc12`, the IC50 in series [2] is 0.007 µM. A half-maximal effect in series [1] (EC50) was put at 0.26 µM.

In series [1], `Cc1cc(C[C@H](N)COc2cncc(-c3ccc4[nH]nc(C)c4c3)c2)ccc1F` gave an EC50 of 1.07 µM.

For the molecule `Cc1n[nH]c2ccc(-c3cncc(OC[C@@H](N)Cc4cccc(F)c4F)c3)cc12`, in [2], the IC50 came out at 0.009 µM. The response in series [1] was half-maximal at 0.18 µM (EC50).

In turn, `N[C@H](COc1cncc(-c2ccc3c(c2)/C(=C\c2ccco2)C(=O)N3)c1)Cc1ccccc1` (stereo in doubt) displayed a bioavailability in series [6] of 0%. The molecule further had a half-life in [11] of 1.15 h.

As to `Cc1n[nH]c2ccc(-c3cncc(OC[C@@H](N)Cc4c[nH]c5ccccc45)c3)cc12` [A-443654], the half-life in series [4] and in [11] was 0.6 h throughout. The Activity turned out to be 2.4% in [5] and 60 mmHg with Canis familiaris [13].
